Assay results published in ChEMBL document CHEMBL5380791, “Modular Biomimetic Strategy Enabled Discovery of Simplified Pseudo-Natural Macrocyclic P-Glycoprotein Inhibitors Capable of Overcoming Multidrug Resistance” (J Med Chem, 2023).
Activity calls are given as the source filed them. The rule behind the calls is not given here.

Assays:
[1] = system: KBv200; assay: Reversal of vinorelbine resistance in human KBv200 cells assessed as reduction in cell viability incubated for 72 hrs in presence of vinorelbine (reference value: 224 to 228.30 nM); type: functional, cell-based; conditions: KBv200, 72 h
[2] = system: KBv200; assay: Reversal fold, ratio of vinorelbine IC50 for cytotoxicity against human KBv200 cells over test compound IC50 for reversal of vinorelbine resistance in human KBv200 cells; type: functional
[3] = system: KBv200; assay: Antitumor activity against human KBv200 cells xenografted in Balb/cA nude mouse assessed as mean tumor volume at 8 mg/kg, iv administered as single dose and measured on day 0; type: functional
[4] = system: KBv200; assay: Antitumor activity against human KBv200 cells xenografted in Balb/cA nude mouse assessed as mean tumor volume at 8 mg/kg, iv q4d administered for 13 days; type: functional; conditions: time 13 day
[5] = system: KBv200; assay: Antitumor activity against human KBv200 cells xenografted in Balb/cA nude mouse assessed as T/C ratio at 8 mg/kg, iv q4d administered for 13 days; type: functional; conditions: time 13 day
[6] = system: KBv200; assay: Antitumor activity against human KBv200 cells xenografted in Balb/cA nude mouse assessed as tumor growth inhibition at 8 mg/kg, iv q4d administered for 13 days; type: functional; conditions: KBv200, 312 h, time 13 day
[7] = Toxicity in Balb/cA nude mouse xenografted with human KBv200 cells assessed as changes in body weight at 75 mg/kg, ip qd administered for 13 days in presence of vinorelbine; type: organism-based; conditions: in vivo, 312 h, time 13 day
[8] = Toxicity in Balb/cA nude mouse xenografted with human KBv200 cells assessed as mortality at 75 mg/kg, ip qd administered for 13 days in presence of vinorelbine; type: organism-based; conditions: in vivo, 312 h, time 13 day
[9] = system: KBv200; assay: Induction of apoptosis in human KBv200 cells assessed as increase in cleaved PARP level at 5 uM incubated for 24 hrs by Western blotting analysis; type: functional, cell-based
[10] = system: KBv200; assay: Induction of apoptosis in human KBv200 cells assessed as increase in cleaved caspase 3 level at 5 uM incubated for 24 hrs by Western blotting analysis; type: functional, cell-based
[11] = system: KBv200; assay: Induction of apoptosis in human KBv200 cells assessed as increase in cleaved caspase 9 level at 5 uM incubated for 24 hrs by Western blotting analysis; type: functional, cell-based
[12] = system: KBv200; assay: Reversal of paclitaxel resistance in human KBv200 cells assessed as reduction in cell viability incubated for 72 hrs in presence of paclitaxel (reference value: 392.9+/-196.5 nM); type: functional, cell-based; conditions: KBv200, 72 h
[13] = system: KBv200; assay: Reversal of adriamycin resistance in human KBv200 cells assessed as reduction in cell viability incubated for 72 hrs in presence of adriamycin (reference value: 1291.2+/-308.9 nM); type: functional, cell-based; conditions: KBv200, 72 h
[14] = system: KB; assay: Reversal of vinorelbine resistance in human KB cells assessed as reduction in cell viability incubated for 72 hrs in presence of vinorelbine (reference value: 7.4+/-2.2 nM); type: functional, cell-based
[15] = system: K562/Adr; assay: Reversal of vinorelbine resistance in human K562/Adr cells assessed as reduction in cell viability incubated for 72 hrs in presence of vinorelbine (reference value: 7320.6+/-2115.2 nM); type: functional, cell-based
[16] = system: K562; assay: Reversal of vinorelbine resistance in human K562 cells assessed as reduction in cell viability incubated for 72 hrs in presence of vinorelbine (reference value: 5.9+/-0.2 nM); type: functional, cell-based; conditions: K562, 72 h
[17] = system: NCI/ADR-RES; assay: Reversal of vinorelbine resistance in human NCI/ADR-RES cells assessed as reduction in cell viability incubated for 72 hrs in presence of vinorelbine (reference value: 6125.7+/-3267.7 nM); type: functional, cell-based
[18] = system: OVCAR-8; assay: Reversal of vinorelbine resistance in human OVCAR-8 cells assessed as reduction in cell viability incubated for 72 hrs in presence of vinorelbine (reference value: 16.2+/-4.7 nM); type: functional, cell-based; conditions: OVCAR-8, 72 h

O=C1CCCCCCCCCCCNC(=O)[C@H](Cc2ccccc2)NC(=O)/C(c2cccc3ccccc23)=C\C=C(\c2ccccc2)CN1
IC50 ([1]; read-out: IC50): 0.05 nM | Ratio IC50 [2]: 4566

O=C1CCCCCCCCCCCNC(=O)[C@H](Cc2c[nH]c3ccccc23)NC(=O)/C(c2ccccc2)=C\C=C(\c2ccccc2)CN1
IC50 ([1]; read-out: IC50): 140 nM | Ratio IC50 [2]: 2

O=C1CCCCCCCCCCCNC(=O)CNC(=O)/C(c2ccccc2)=C\C=C(\c2ccccc2)CN1
IC50 ([1]; read-out: IC50): 24.5 nM | Ratio IC50 [2]: 9

CC(C)[C@H](NC(=O)/C(=C/C=C(/CNC(=O)CCCCCCCCCCCN)c1ccccc1)c1ccccc1)C(=O)O
IC50 ([1]; read-out: IC50): 199 nM | Ratio IC50 [2]: 1.1

CCC1=C[C@@H]2CN(C1)Cc1c([nH]c3ccccc13)[C@@](C(=O)OC)(c1cc3c(cc1OC)N(C)[C@H]1[C@@](O)(C(=O)OC)[C@H](OC(C)=O)[C@]4(CC)C=CCN5CC[C@]31[C@@H]54)C2 [VINORELBINE]
Activity [3]: 122.3 mm3 | Activity [4]: 1727.4 mm3 | T/C [5]: 82% | inhibition in vivo at 8 mg/kg [6]: 18% | Activity [7]: Non-Toxic | Activity [8]: Non-Toxic | Activity [9]: inactive | Activity [10]: inactive | Activity [11]: inactive

NC(=O)CC[C@@H]1NC(=O)/C(c2ccccc2)=C\C=C(\c2ccccc2)CNC(=O)CCCCCCCCCCCNC1=O
IC50 ([1]; read-out: IC50): 210 nM | Ratio IC50 [2]: 1

CC(C)[C@@H]1NC(=O)C(c2ccccc2)CCC(c2ccccc2)CNC(=O)CCCCCCCCCCCNC1=O (stereo partly drawn)
IC50 ([1]; read-out: IC50): 3.58 nM | Ratio IC50 [2]: 64

O=C1CCCCCCCCCCCNC(=O)[C@H](Cc2cn([C@@H]3O[C@H](CO)[C@H](O)[C@H](O)[C@H]3O)nn2)NC(=O)/C(c2ccccc2)=C\C=C(\c2ccccc2)CN1
IC50 ([1]; read-out: IC50): 140 nM | Ratio IC50 [2]: 1.6

COc1ccc(/C2=C/C=C(/c3ccccc3)C(=O)N[C@@H](C(C)C)C(=O)NCCCCCCCCCCCC(=O)NC2)cc1
IC50 ([1]; read-out: IC50): 1.54 nM | Ratio IC50 [2]: 148

CC(C)[C@H]1NC(=O)/C(c2cccc3ccccc23)=C\C=C(\c2ccccc2)CNC(=O)CCCCCCCCCCCNC1=O
IC50 ([1]; read-out: IC50): 0.21 nM | Ratio IC50 [2]: 1291

CC(C)[C@@H]1NC(=O)/C(c2ccccc2)=C\C=C/CNC(=O)CCCCCCCCCCCNC1=O
IC50 ([1]; read-out: IC50): 3.76 nM | Ratio IC50 [2]: 61

NCCCC[C@@H]1NC(=O)/C(c2ccccc2)=C\C=C(\c2ccccc2)CNC(=O)CCCCCCCCCCCNC1=O
IC50 ([1]; read-out: IC50): 289 nM | Ratio IC50 [2]: 0.8

CC(=O)N[C@@H]1[C@@H](O)[C@H](O)[C@@H](CO)O[C@H]1n1cc(C[C@@H]2NC(=O)/C(c3ccccc3)=C\C=C(\c3ccccc3)CNC(=O)CCCCCCCCCCCNC2=O)nn1
IC50 ([1]; read-out: IC50): 152 nM | Ratio IC50 [2]: 1.5

CSCC[C@@H]1NC(=O)/C(c2ccccc2)=C\C=C(\c2ccccc2)CNC(=O)CCCCCCCCCCCNC1=O
IC50 ([1]; read-out: IC50): 1.24 nM | Ratio IC50 [2]: 184

CC(C)C[C@@H]1NC(=O)/C(c2ccccc2)=C\C=C(\c2ccccc2)CNC(=O)CCCCCCCCCCCNC1=O
IC50 ([1]; read-out: IC50): 0.55 nM | Ratio IC50 [2]: 415

O=C1CCCCCCCCCCCNC(=O)[C@@H]2CCCN2C(=O)/C(c2ccccc2)=C\C=C(\c2ccccc2)CN1
IC50 ([1]; read-out: IC50): 8.63 nM | Ratio IC50 [2]: 26

COc1ccc(CCN(C)CCCC(C#N)(c2ccc(OC)c(OC)c2)C(C)C)cc1OC (stereo not drawn) [VERAPAMIL]
IC50 [1]: 6.96 nM | Ratio IC50 [2]: 33 | IC50 [12]: 18.2 nM | IC50 [13]: 145 nM | IC50 [14]: 4.4 nM | IC50 [15]: 446 nM | IC50 [16]: 4.3 nM | IC50 [17]: 289 nM | IC50 [18]: 8.5 nM

CC(C)C1NC(=O)/C(c2ccccc2)=C\C=C(\c2ccccc2)CNC(=O)CCCCCCCCCCCNC1=O (stereo not drawn)
IC50 ([1]; read-out: IC50): 1.13 nM | Ratio IC50 [2]: 202

COc1ccc(/C2=C/C=C(/c3ccccc3)CNC(=O)CCCCCCCCCCCNC(=O)[C@H](C(C)C)NC2=O)cc1
IC50 ([1]; read-out: IC50): 0.44 nM | Ratio IC50 [2]: 519

O=C1CCCCCCCCCCCNC(=O)[C@H](Cc2ccccc2)NC(=O)/C(c2ccccc2)=C\C=C(\c2ccccc2)CN1
IC50 ([1]; read-out: IC50): 0.38 nM | Ratio IC50 [2]: 601

O=C1CCCCCCCCCCCNC(=O)[C@H](Cc2ccc(O)cc2)NC(=O)/C(c2ccccc2)=C\C=C(\c2ccccc2)CN1
IC50 ([1]; read-out: IC50): 1.76 nM | Ratio IC50 [2]: 130

CC(C)[C@@H]1NC(=O)/C(c2ccccc2)=C\C=C(\c2ccccc2)CNC(=O)CCCCCCCCCNC1=O
IC50 ([1]; read-out: IC50): 4.57 nM | Ratio IC50 [2]: 50

O=C1CCCCCCCCCCCNC(=O)[C@H](Cc2cn([C@@H]3O[C@H](CO)[C@@H](O)[C@H](O)[C@H]3O)nn2)NC(=O)/C(c2ccccc2)=C\C=C(\c2ccccc2)CN1
IC50 ([1]; read-out: IC50): 169 nM | Ratio IC50 [2]: 1.3

CC(C)[C@@H]1NC(=O)/C(c2ccc(Br)cc2)=C\C=C(\c2ccccc2)CNC(=O)CCCCCCCCCCCNC1=O
IC50 ([1]; read-out: IC50): 0.4 nM | Ratio IC50 [2]: 570

CC(C)[C@@H]1NC(=O)/C(c2cccc3ccccc23)=C\C=C(\c2ccccc2)CNC(=O)CCCCCCCCCCCNC1=O
IC50 ([1]; read-out: IC50): 0.3 nM | Ratio IC50 [2]: 761

CC(C)[C@@H]1NC(=O)/C(c2ccccc2)=C\C=C(\c2ccccc2)CNC(=O)CCOCCOCCOCCNC1=O
IC50 ([1]; read-out: IC50): 127 nM | Ratio IC50 [2]: 1.8

CC(C)[C@@H]1NC(=O)/C(c2ccccc2)=C\C=C(\c2ccccc2)CNC(=O)CCCCCCCCCCCNC1=O
IC50 ([1]; read-out: IC50): 1.19 nM | Ratio IC50 [2]: 192

CC(=O)N[C@@H]1[C@@H](OC(C)=O)[C@H](OC(C)=O)[C@@H](COC(C)=O)O[C@H]1n1cc(C[C@@H]2NC(=O)/C(c3ccccc3)=C\C=C(\c3ccccc3)CNC(=O)CCCCCCCCCCCNC2=O)nn1
IC50 ([1]; read-out: IC50): 248 nM | Ratio IC50 [2]: 0.9

C#CC[C@@H]1NC(=O)/C(c2ccccc2)=C\C=C(\c2ccccc2)CNC(=O)CCCCCCCCCCCNC1=O
IC50 ([1]; read-out: IC50): 3.64 nM | Ratio IC50 [2]: 63

CC(C)[C@@H]1NC(=O)/C(c2ccccc2)=C\C=C(\c2ccc(F)cc2)CNC(=O)CCCCCCCCCCCNC1=O
IC50 ([1]; read-out: IC50): 0.42 nM | Ratio IC50 [2]: 543

CC(C)[C@@H]1NC(=O)/C(c2ccccc2)=C/C=C(/c2ccccc2)CNC(=O)CCCCCCCNC1=O
IC50 ([1]; read-out: IC50): 46.6 nM | Ratio IC50 [2]: 5

COc1ccc(/C2=C/C=C(/c3ccccc3)CNC(=O)CCCCCCCCCCCNC(=O)[C@H](C(C)C)NC2=O)cc1OC
IC50 ([1]; read-out: IC50): 3.65 nM | Ratio IC50 [2]: 63
